According to paper PMC3347530, “Atomic Resolution Crystal Structure of NAD^+-Dependent Formate Dehydrogenase from Bacterium Moraxella sp. C-1” (Acta Naturae, 2009):

Target: T1, MorFDH (NAD+-dependent formate dehydrogenase from Moraxella sp. C-1) (Moraxella sp., UniProt O08375)
T1 construct: gene fdh; homodimer; 399 residues located, last two C-terminal residues not seen
T1 sequence (O08375 2-402): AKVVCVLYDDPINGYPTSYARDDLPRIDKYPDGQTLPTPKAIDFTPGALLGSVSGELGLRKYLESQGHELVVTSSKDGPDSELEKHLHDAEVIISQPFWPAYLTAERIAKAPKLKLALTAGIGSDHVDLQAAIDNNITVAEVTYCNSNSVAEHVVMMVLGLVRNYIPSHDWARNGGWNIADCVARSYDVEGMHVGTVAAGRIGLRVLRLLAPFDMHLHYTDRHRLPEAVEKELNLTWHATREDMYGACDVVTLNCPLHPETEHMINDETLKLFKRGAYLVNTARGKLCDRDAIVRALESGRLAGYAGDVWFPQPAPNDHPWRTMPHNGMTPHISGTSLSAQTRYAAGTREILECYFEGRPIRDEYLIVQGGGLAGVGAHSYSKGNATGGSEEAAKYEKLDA
Test: X-ray crystal structure, […] A
Assay type: binding
Conditions: active site, co-crystallised with 5 mM NAD+ and 5 mM sodium azide, protein in pH 7.0 phosphate, reservoir pH 6.5, 20 C

Compound	X-ray crystal structure, 1.1 A (ternary complex with azide)	X-ray crystal structure, 1.1 A (ternary complex with NAD+, inhibitor, transition-state mimic)
NC(=O)c1ccc[n+]([C@@H]2O[C@H](COP(=O)(O)OP(=O)(O)OC[C@H]3O[C@@H](n4cnc5c(N)ncnc54)[C@H](O)[C@@H]3O)[C@@H](O)[C@H]2O)c1 [NAD+]	The NAD ^+ molecule and one azide ion are bound in the active site of the enzyme	–
[N-]=[N+]=[N-] [azide ion]	–	The NAD ^+ molecule and one azide ion are bound in the active site of the enzyme
